Values after ≈ are worked out from the molar mass of the structure shown. Active and inactive are the calls of the source. The rule behind the calls is not given here.
How the values were obtained:
[1] = system: Porphyromonas gingivalis; assay: Antibacterial activity against Porphyromonas gingivalis after 48 hrs by spectrophotometry; type: functional
[2] = system: Streptococcus mutans; assay: Antibacterial activity against Streptococcus mutans Ingbritt after 48 hrs by spectrophotometry; type: functional
[3] = system: Prevotella intermedia; assay: Antibacterial activity against Prevotella intermedia after 48 hrs by spectrophotometry; type: functional, organism-based
[4] = system: Streptococcus sanguinis; assay: Antibacterial activity against Streptococcus sanguis after 48 hrs by spectrophotometry; type: functional

Row | Compound | MIC [1] [µg/mL] | MIC [2] [µg/mL] | Activity [3] | MIC [4] [µg/mL] | Activity [1]
1 | C[n+]1cc2c3c(ccc2c2ccc4cc5c(cc4c21)OCO5)OCO3 [SANGUINARIUM] | 15 | 15 |  |  | 
2 | CC1=C2c3c(C)cc(O)c4c(O[C@@H]5O[C@H](CO[C@@H]6OC[C@@H](O)[C@H](O)[C@H]6O)[C@@H](O)[C@H](O)[C@H]5O)ccc(c34)OC2(O)c2c(O[C@@H]3O[C@H](CO)[C@@H](O)[C@H](O)[C@H]3O)ccc(O)c2C1=O (stereo not given in full) |  | 1 (≈ 1.18 µM) | inactive | 1 (≈ 1.18 µM) | inactive
3 | CC1=C2c3c(C)cc(O)c4c(O[C@@H]5O[C@H](CO[C@@H]6OC[C@@H](O)[C@H](O)[C@H]6O)[C@@H](O)[C@H](O)[C@H]5O)ccc(c34)OC2(O)c2c(O[C@@H]3O[C@H](CO[C@@H]4OC[C@@H](O)[C@H](O)[C@H]4O)[C@@H](O)[C@H](O)[C@H]3O)ccc(O)c2C1=O (stereo not given in full) |  | 1 (≈ 1.02 µM) | inactive | 1 (≈ 1.02 µM) | inactive
